Test system: human NPM-ALK overexpressing murine BaF3 cells
Assay: Growth inhibition of BaF3-NPM-ALK cells (Yopro staining)
Format: cell-based
Conditions: Mus musculus, 48 h; two days incubation
Source text: The expression of NPM-ALK is achieved by transfecting the BaF3 cell line with an expression vector pCIneo™ (Promega Corp., Madison Wis., USA) coding for NPM-ALK and subsequent selection of G418 resistant cells. Non-transfected BaF3 cells depend on IL-3 for cell survival. In contrast NPM-ALK expressing BaF3 cells (named BaF3-NPM-ALK hereinafter) can proliferate in the absence of IL-3 because they obtain proliferative signal through NPM-ALK kinase. Putative inhibitors of the NPM-ALK kinase therefore abolish the growth signal and result in antiproliferative activity. […] The inhibitory activity of the compounds of formula I is determined, briefly, as follows: BaF3-NPM-ALK cells (15,000/microtitre plate well) are transferred to 96-well microtitre plates. […] The growth of the BaF3-NPM-ALK cells is measured by means of Yopro™ staining [T Idziorek et al. J. Immunol. […] Cell lysis is completed within 60 min at room temperature and total amount of Yopro bound to DNA is determined by measurement using the Cytofluor II 96-well reader (PerSeptive Biosystems) with the following settings: Excitation (nm) 485/20 and Emission (nm) 530/25. IC50 values are determined by a computer-aided system using the formula: IC50=[(ABStest−ABSstart)/(ABScontrol−ABSstart)]×100. […]

## CNC(=O)c1ccccc1Nc1nc(Nc2ccc(N3CCOCC3)cc2OC)ncc1Cl [2-[5-chloro-2-(2-methoxy-4-morpholin-4-yl-phenylamino)-pyrimidin-4-ylamino]-N-methyl-benzamide]
  IC50: 97 nM
